# Publication PMC12730333 (Biology, 2025)
# Like-named read-outs stand apart in the source and are kept apart here. Marks after values point to notes of the source that are not given here.
# Columns and labels:
# [1] = tested on: L929 cells; assay: Cytotoxicity assay (Alamar Blue, 24 h) on L929 fibroblasts; assay type: cell-based, murine
# Protocol: (§1) HepG2 cells (human hepatocellular carcinoma), VERO cells (African green monkey kidney), and J774.G8 macrophages (murine reticulosarcoma) were maintained in DMEM medium, supplemented with 10% FBS, 1% Pen/Str at 37 °C and 5% CO2 [70, 71]. For the cultivation of L929 fibroblasts (murine fibrosarcoma), RPMI 1640 medium without phenol red, supplemented with 2 mM L-glutamine, 10% FBS, and 1% Pen/Str, was used and maintained under the same conditions of temperature and CO2 as above.
# (§2) J774.G8, VERO (10^5 cells/well), HepG2, L929 (0.5 × 10^5 cells/well) cells, and MPMs (3 × 10^5 cells/well) were centrifuged, resuspended in medium, plated in 96-well microplates, and incubated for 24 h under cultivation conditions. Subsequently, they were exposed to different concentrations of the compounds, serially diluted in medium to a final volume of 100 µL/well, and incubated for 24 h at 37 °C and 5% CO2. Cell viability was then assessed using the AB, and data were acquired by spectrophotometry. […] Untreated cells were used as negative controls, and cells exposed to the reference compound (MT) were used as positive controls. The Selectivity Index (SI) was calculated using the ratio SI = CC50 (mammalian cells)/IC50 (promastigote or amastigote forms of L. amazonensis).
# [2] = tested on: Leishmania amazonensis promastigote forms (PH8 strain); conditions: exposed to IC50, 24–168 h
# Protocol: (§4) Promastigotes were kept at 26 °C, whereas amastigotes were kept at 32 °C. After 24 h, parasite viability was assessed using the AB colorimetric method, and the data were analyzed using a spectrophotometer as previously described [74]. […] Wells with medium and without parasites were used as blanks, and wells with medium and untreated parasites were used as negative controls. MT was employed as the reference drug.
# [3] = tested on: promastigote forms of Leishmania amazonensis PH8 strain; assay: ROS production by flow cytometry, H2DCFDA, promastigotes; assay type: cell-based; conditions: exposed to IC50 (AA 10 µM), 24 h
# [4] = tested on: ex vivo amastigote forms of L. amazonensis LTB0016 strain; assay: Leishmanicidal activity assay on ex vivo amastigotes (Alamar Blue, 24 h); conditions: for IC50: read-out: IC50 Ama., 24 h
# Description: Ex vivo amastigote forms of L. amazonensis (MHOM/BR/77/LTB0016) were harvested and purified from lesions of male BALB/c mice. For this, a suspension containing 10^6 amastigotes was inoculated subcutaneously into the intraplantar region of the hind paw. After 30 days, the animals were euthanized, and their paws were excised and rinsed in 70% ethanol. The epidermis and necrotic tissues were mechanically dissociated. Subsequently, the paws were placed in Petri dishes containing RPMI 1640 medium supplemented with 5% FBS and 2% Pen/Str. […] The supernatant was transferred to another tube, homogenized with a syringe, and centrifuged at 764× g for another 15 min. The supernatant was discarded, and the pellet was resuspended in RPMI 1640 medium [69].
# as §4
# [5] = tested on: HepG2 cells; assay: Cytotoxicity assay (Alamar Blue, 24 h) on HepG2 cells; assay type: cell-based, human; conditions: 0.5 × 10^5 cells/well
# Protocol: as §1, §2
# [6] = tested on: murine peritoneal macrophages—MPMs; assay: Cytotoxicity assay (Alamar Blue, 24 h) on murine peritoneal macrophages; assay type: cell-based, Swiss Webster mice; conditions: 3 × 10^5 cells/well
# Protocol: (§3) Murine peritoneal macrophages—MPMs (primary cells)—were isolated from male Swiss Webster mice stimulated with 1 mL of 3% Brewer’s thioglycollate medium, administered intraperitoneally. After 96 h, the animals were euthanized, and the MPMs were collected by peritoneal lavage with approximately 10 mL of RPMI 1640 medium. The cell suspension was centrifuged at 382× g for 10 min, and the pellet was resuspended in medium supplemented with 5% FBS, 1% Pen/Str, and 2 mM L-glutamine. All cell cultures were maintained at 37 °C and 5% CO2 [73]. For the experiments, all cell types were cultured until confluency.
# as §2
# [7] = tested on: ex vivo amastigote forms of L. amazonensis LTB0016 strain; assay: Mitochondrial membrane potential (ΔΨm) by flow cytometry, TMRE, ex vivo amastigotes
# [8] = tested on: VERO cells; assay: Cytotoxicity assay (Alamar Blue, 24 h) on VERO cells; assay type: cell-based, African green monkey
# Protocol: as §1, §2
# [9] = tested on: J774.G8 cells; assay: Cytotoxicity assay (Alamar Blue, 24 h) on J774.G8 macrophages; assay type: cell-based, murine; conditions: 10^5 cells/well, read-out: CC50 J744.G8
# Protocol: as §1, §2
# [10] = tested on: promastigote forms of Leishmania amazonensis PH8 strain; assay: Mitochondrial membrane potential (ΔΨm) by flow cytometry, TMRE, promastigotes; conditions: exposed to IC50, 24 h
# [11] = tested on: promastigote forms of Leishmania amazonensis PH8 strain; assay: Leishmanicidal activity assay on promastigotes (Alamar Blue, 24 h); assay type: cell-based; conditions: 10^6 parasites/mL
# Protocol: Promastigote forms of Leishmania amazonensis (IFLA/BR/1967/PH8) were obtained from the Instituto Oswaldo Cruz Leishmania collection (CLIOC/Fiocruz). These cultures were maintained in Schneider’s Insect Medium, supplemented with 20% FBS and 1 μL/mL of Pen/Str at 26 °C. In vitro passages were conducted weekly, with promastigotes harvested during the late logarithmic phase for experiments on the 5th day of growth (Figure S1A).
# MT was employed as the reference drug.
# [12] = tested on: ex vivo amastigote forms of L. amazonensis LTB0016 strain; assay: ROS production by flow cytometry, H2DCFDA, ex vivo amastigotes; assay type: cell-based, Leishmania amazonensis; conditions: exposed to IC50 (AA 10 µM), 24 h
# [13] = Cytotoxicity assay (Alamar Blue, 24 h) on L929 fibroblasts; assay type: cell-based, murine; conditions: mouse, L929 fibroblasts, 0.5 × 10^5 cells/well
# Protocol: as §1, §2
# [14] = Cytotoxicity assay (Alamar Blue, 24 h) on HepG2 cells; assay type: cell-based, human; conditions: human, HepG2 cells, 0.5 × 10^5 cells/well
# Protocol: as §1, §2
# [15] = Cytotoxicity assay (Alamar Blue, 24 h) on murine peritoneal macrophages; assay type: cell-based, Swiss Webster mice; conditions: male, Swiss Webster, mouse, murine peritoneal macrophages (MPMs, primary cells)
# Protocol: as §3, §2
# [16] = Cytotoxicity assay (Alamar Blue, 24 h) on VERO cells; assay type: cell-based, African green monkey; conditions: African green monkey, VERO cells, 10^5 cells/well
# Protocol: as §1, §2
# [17] = Cytotoxicity assay (Alamar Blue, 24 h) on J774.G8 macrophages; assay type: cell-based, murine; conditions: mouse, J774.G8 macrophages, 10^5 cells/well, read-out: CC50 J744.G8
# Protocol: as §1, §2
# [18] = tested on: HepG2 cells; set-up: method as in Araújo et al. 120; conditions: ref Araújo et al. 120; read-out: cytotoxic concentration (compared with CC50 in HepG2); cited from earlier work
# [19] = exposed to IC50, 24 h, (MT − MC)/MC
compound,measurement,setting,value
"CCNc1cc2[s+]c3cc(NCC)c(C)cc3nc2cc1C.F[P-](F)(F)(F)(F)F.F[P-](F)(F)(F)(F)F.F[P-](F)(F)(F)(F)F.F[P-](F)(F)(F)(F)F.N#[O+].[Ru+2].c1ccc(-c2ccccn2)nc1.c1ccc(-c2ccccn2)nc1 [NMB-B, new methylene blue B]",CC50,[1]; 0.5 × 10^5 cells/well,270 ± 8.48 µM
same,viability of L929 cells,[1]; lower concentrations (37–100 μM),> 50%
same,time from which proliferation was significantly (p < 0.05) reduced compared to MT,[2],≥ 48 h
same,"H2DCFDA MFI, Promastigotes High Population",[3],"2,639,177.00 **"
same,"H2DCFDA MFI, Promastigotes Low Population",[3],"39,191.97"
same,inhibitory action compared with MT,"[4]; ex vivo amastigotes, doses < 0.10 μM",more inhibitory action
same,IC50,"[4]; ex vivo amastigotes, 10^6 parasites/mL",3.16 ± 0.37 µM
same,CC50,[5],34.2 ± 7.31 µM
same,CC50,[6],65.9 ± 1.69 µM
same,decrease of ΔΨm considering both subpopulations,"[7]; ex vivo amastigotes, LP plus HP, IC50, 24 h",90%
same,"TMRE MFI, ex vivo Amastigotes High Population","[7]; exposed to IC50, 24 h","410,112.30"
same,"TMRE MFI, ex vivo Amastigotes Low Population","[7]; exposed to IC50, 24 h",4174.80
same,"VIΔΨm, ex vivo Amastigotes High Population",[7]; [19],−0.59 ± 0.21
same,"VIΔΨm, ex vivo Amastigotes Low Population",[7]; [19],−0.31 ± 0.03
same,CC50,[8]; 10^5 cells/well,248 ± 32.9 µM
same,CC50,[9],130 ± 7.35 µM
same,"TMRE MFI, Promastigotes High Population",[10],"74,562.13"
same,"TMRE MFI, Promastigotes Low Population",[10],4070.50
same,"VIΔΨm, Promastigotes High Population",[10]; (MT − MC)/MC,0.27 ± 0.16
same,"VIΔΨm, Promastigotes Low Population","[10]; (MT − MC)/MC, negative = depolarization",−0.13 ± 0.09
same,IC50,[11],5.48 µM
same,"H2DCFDA MFI, Ex Vivo Amastigotes High Population",[12],"131,896.27"
same,"H2DCFDA MFI, Ex Vivo Amastigotes Low Population",[12],2116.87
same,"VIROS, Ex Vivo Amastigotes High Population",[12]; MT/MC,0.85 ± 0.49
same,"VIROS, Ex Vivo Amastigotes Low Population",[12]; MT/MC,1.11 ± 0.48
"CCCCCCCCCCCCCCCCOP(=O)([O-])OCC[N+](C)(C)C [Miltefosine, miltefosine, reference compound]",CC50 at 24 h,[13],113 ± 18.2 µM
same,IC50,[4]; Leishmania amazonensis,0.97 ± 0.4 µM
same,CC50 at 24 h,[14],181 ± 11.3 µM
same,CC50 at 24 h,[15]; 3 × 10^5 cells/well,103 ± 4.77 µM
same,viability at 24 h,[15]; exposures up to 70 μM,> 50%
same,CC50 at 24 h,[16],168 ± 2.75 µM
same,viability of VERO cells,[8]; concentrations ≥ 300 μM,eliminated the viability
same,CC50 at 24 h,[17],156 ± 8.48 µM
same,IC50,[11]; Leishmania amazonensis,23.2 ± 2.55 µM
C[C@@H]1[C@H](O)[C@@H](C)/C=C/C=C/C=C/C=C/C=C/C=C/C=C/[C@H](O[C@@H]2O[C@H](C)[C@@H](O)[C@H](N)[C@@H]2O)C[C@@H]2O[C@](O)(C[C@@H](O)C[C@@H](O)[C@H](O)CC[C@@H](O)C[C@@H](O)CC(=O)O[C@H]1C)C[C@H](O)[C@H]2C(=O)O [Amphotericin B],CC50,[18],35.2 µM
